For 26 compounds, IC50 results are on record in patent US8569344B2, “N-piperidinyl acetamide derivatives as calcium channel blockers” (Zalicus Pharmaceuticals Ltd., priority 2008, dated 2013).

Common to all, as to assay type: cell-based
The target of data set [1] is T1, human α1H T-type channels (Homo sapiens, UniProt O95180).
T1 construct: expressed in transfected cells; host or cells: HEK 293
The data set can be described thus: T-type calcium channel block, whole cell patch clamp in HEK cells (α1H). As to conditions: HEK cells, patch clamp, mainly non-inactivated protocol; values above 10 μM shown as 10 μM; read-out: T-type Calcium Channel Block α1H IC50.

Data set [2] deals with T2, human α1G T-type channels (Homo sapiens, UniProt O43497).
T2 construct: expressed in transfected cells; host or cells: HEK 293
The data set can be described thus: T-type calcium channel block, whole cell patch clamp in HEK cells (α1G). As to conditions: HEK cells, patch clamp, mainly non-inactivated protocol; values above 10 μM shown as 10 μM, below 0.30 μM shown as 0.30 μM; read-out: T-type Calcium Channel Block α1G IC50. Background: The patch-clamp technique gives a direct electrical read-out from membranes.

For data set [3], the target named is hERG K+ channel (Homo sapiens, UniProt Q12809). The data set can be described thus: hERG K+ Channel Block. On the technique in general: The hERG channel carries a current that helps repolarise heart muscle cells.

Read-outs that look alike come from different tables or passages of the source.

A word on the IC50: it is the midpoint of a concentration-inhibition curve.

T2 sequence (O43497 whole entry): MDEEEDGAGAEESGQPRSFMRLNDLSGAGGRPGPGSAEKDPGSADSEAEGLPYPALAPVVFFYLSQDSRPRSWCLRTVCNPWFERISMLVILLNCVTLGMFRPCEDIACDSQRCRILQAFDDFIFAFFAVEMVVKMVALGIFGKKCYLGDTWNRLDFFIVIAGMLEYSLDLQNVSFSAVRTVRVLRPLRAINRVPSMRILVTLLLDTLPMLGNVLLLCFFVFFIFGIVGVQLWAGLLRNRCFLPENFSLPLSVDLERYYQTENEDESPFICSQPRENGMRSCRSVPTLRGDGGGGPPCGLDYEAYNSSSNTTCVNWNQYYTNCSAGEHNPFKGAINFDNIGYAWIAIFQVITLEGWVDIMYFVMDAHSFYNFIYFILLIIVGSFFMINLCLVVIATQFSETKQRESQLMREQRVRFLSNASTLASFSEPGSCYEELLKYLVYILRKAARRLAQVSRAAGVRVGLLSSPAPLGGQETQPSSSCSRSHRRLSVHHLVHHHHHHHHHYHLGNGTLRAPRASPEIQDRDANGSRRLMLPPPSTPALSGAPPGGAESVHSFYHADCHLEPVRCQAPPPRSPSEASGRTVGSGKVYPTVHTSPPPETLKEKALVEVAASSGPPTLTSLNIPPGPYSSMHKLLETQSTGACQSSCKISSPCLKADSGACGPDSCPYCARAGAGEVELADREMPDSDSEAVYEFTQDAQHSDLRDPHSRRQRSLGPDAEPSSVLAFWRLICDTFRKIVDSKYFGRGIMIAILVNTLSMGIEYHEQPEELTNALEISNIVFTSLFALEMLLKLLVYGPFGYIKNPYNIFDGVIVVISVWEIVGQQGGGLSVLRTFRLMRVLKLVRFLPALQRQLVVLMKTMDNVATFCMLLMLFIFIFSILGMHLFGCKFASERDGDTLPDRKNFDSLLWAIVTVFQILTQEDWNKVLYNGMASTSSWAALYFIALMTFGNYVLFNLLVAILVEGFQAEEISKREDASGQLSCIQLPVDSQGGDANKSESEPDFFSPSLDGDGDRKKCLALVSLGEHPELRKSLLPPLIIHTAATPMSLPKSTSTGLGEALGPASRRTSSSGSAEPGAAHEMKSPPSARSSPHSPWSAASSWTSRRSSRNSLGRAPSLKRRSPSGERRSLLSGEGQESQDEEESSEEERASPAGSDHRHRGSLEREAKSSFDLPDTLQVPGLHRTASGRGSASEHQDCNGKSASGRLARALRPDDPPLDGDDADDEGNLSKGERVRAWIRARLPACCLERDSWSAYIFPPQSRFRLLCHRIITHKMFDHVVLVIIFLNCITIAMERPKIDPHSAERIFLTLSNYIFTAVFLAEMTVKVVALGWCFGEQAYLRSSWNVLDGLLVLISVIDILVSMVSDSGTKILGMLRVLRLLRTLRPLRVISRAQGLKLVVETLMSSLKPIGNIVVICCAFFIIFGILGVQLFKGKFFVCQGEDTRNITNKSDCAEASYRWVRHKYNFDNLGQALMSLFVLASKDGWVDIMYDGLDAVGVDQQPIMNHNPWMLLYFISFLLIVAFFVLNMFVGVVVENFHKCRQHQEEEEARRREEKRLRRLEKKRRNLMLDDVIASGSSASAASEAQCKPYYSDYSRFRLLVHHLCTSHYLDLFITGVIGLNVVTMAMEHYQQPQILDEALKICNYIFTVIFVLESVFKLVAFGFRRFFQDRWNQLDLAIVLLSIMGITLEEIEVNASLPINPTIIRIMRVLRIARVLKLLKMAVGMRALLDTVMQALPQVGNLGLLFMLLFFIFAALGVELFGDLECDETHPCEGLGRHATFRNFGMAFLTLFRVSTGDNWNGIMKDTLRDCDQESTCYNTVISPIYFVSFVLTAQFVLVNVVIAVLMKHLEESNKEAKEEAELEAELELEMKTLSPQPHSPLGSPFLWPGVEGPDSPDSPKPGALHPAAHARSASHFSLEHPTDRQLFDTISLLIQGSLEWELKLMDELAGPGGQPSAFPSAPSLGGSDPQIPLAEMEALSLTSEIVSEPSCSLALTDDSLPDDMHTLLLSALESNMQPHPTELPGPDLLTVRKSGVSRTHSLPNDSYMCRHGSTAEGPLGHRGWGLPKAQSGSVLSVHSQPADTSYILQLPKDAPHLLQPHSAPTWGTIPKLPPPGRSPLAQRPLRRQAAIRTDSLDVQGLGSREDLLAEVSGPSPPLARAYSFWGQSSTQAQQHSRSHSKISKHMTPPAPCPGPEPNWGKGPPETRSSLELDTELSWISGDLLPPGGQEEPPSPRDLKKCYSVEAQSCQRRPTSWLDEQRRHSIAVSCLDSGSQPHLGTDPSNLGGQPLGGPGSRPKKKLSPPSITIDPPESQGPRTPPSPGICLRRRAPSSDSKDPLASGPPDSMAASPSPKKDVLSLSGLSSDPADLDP
Chain of hERG K+ channel (Q12809 whole entry): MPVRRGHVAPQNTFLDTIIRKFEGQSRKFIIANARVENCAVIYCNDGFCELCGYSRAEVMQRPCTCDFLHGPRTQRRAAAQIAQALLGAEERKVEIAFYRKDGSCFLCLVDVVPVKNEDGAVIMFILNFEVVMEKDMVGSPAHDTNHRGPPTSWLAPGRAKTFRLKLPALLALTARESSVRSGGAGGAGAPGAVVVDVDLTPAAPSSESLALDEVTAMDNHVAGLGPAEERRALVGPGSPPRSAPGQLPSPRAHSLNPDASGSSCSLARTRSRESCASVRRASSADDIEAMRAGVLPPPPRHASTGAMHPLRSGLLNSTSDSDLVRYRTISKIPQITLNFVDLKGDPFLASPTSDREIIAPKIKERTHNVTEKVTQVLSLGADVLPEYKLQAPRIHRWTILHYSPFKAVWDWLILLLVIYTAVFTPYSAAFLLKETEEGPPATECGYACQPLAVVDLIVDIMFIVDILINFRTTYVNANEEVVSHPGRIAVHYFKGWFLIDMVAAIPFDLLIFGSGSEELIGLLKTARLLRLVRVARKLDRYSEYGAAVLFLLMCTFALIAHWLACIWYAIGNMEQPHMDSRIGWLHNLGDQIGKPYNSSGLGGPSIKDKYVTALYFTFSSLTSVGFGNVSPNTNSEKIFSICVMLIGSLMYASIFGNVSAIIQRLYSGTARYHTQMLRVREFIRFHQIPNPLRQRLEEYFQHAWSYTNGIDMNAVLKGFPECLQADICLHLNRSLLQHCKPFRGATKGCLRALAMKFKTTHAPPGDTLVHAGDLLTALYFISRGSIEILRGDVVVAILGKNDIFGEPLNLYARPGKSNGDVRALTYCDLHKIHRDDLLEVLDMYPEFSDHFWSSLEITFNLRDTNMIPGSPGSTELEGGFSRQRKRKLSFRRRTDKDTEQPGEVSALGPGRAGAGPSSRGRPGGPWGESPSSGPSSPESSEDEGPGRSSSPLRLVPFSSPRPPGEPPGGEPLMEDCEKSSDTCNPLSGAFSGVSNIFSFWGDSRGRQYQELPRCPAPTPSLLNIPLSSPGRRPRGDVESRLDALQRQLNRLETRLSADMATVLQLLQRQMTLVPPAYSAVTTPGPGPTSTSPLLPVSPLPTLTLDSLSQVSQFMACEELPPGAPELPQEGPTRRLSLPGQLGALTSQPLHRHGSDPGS

In the case of `COc1cc(OC)cc(C(=O)NCC2CCN(CC(=O)NC(C)(C)C(F)(F)F)CC2)c1` [Compound 457, 3,5-dimethoxy-N-((1-(2-oxo-2-(1,1,1-trifluoro-2-methylpropan-2-ylamino)ethyl)piperidin-4-yl)methyl)benzamide], the values for the IC50 in data set [1], in data set [2] and in data set [3] (human) were 50 nM, under 300 nM and at least 16600 nM, respectively.

Consider `CC(C)(NC(=O)CN1CCC(CNC(=O)c2cccc(Cl)c2)CC1)C(F)(F)F` [Compound 460, 3-chloro-N-((1-(2-oxo-2-(1,1,1-trifluoro-2-methylpropan-2-ylamino)ethyl)piperidin-4-yl)methyl)benzamide], for which the IC50 in data set [1] was 30 nM; in data set [2], under 300 nM; in data set [3] it was 6900 nM.

Take `CC(C)(C(=O)NCCN1CCC(CNC(=O)c2cccc(C(F)(F)F)c2)CC1)C(F)(F)F` [Compound 492, N-((1-(2-(3,3,3-trifluoro-2,2-dimethylpropanamido)ethyl)piperidin-4-yl)methyl)-3-(trifluoromethyl)benzamide]: the IC50 is 90 nM in data set [1], under 300 nM in data set [2] and 4700 nM in data set [3].

Regarding `COc1cc(F)cc(C(=O)NCC2CCN(CC(=O)N(C)C(C)(C)C)CC2)c1` [Compound 541, N-((1-(2-(tert-butyl(methyl)amino)-2-oxoethyl)piperidin-4-yl)methyl)-3-fluoro-5-methoxybenzamide], the values for the IC50 in data set [1], in data set [2] and in data set [3] (human) were 410 nM, 310 nM and at least 17000 nM, respectively.

Take `O=C(NCC1CCN(CCNC(=O)C2(C(F)(F)F)CC2)CC1)c1cccc(Br)c1` [Compound 501, 3-bromo-N-((1-(2-(1-(trifluoromethyl)cyclopropanecarbox-amido)ethyl)piperidin-4-yl)methyl) benzamide]: the IC50 in data set [1] was 120 nM; in data set [2], under 300 nM; in data set [3], 5600 nM.

Take `CC(C)(C)NC(=O)CN1CCC(CNC(=O)c2cccc(Br)c2)CC1` [Compound 374, 3-bromo-N-((1-(2-(tert-butylamino)-2-oxoethyl)piperidin-4-yl)methyl) benzamide]: the half-maximal inhibitory concentration (IC50) in data set [1] was 90 nM; in data set [2] it was under 300 nM; in data set [3], 7800 nM.

`CC(C)(C)C(=O)NCCN1CCC(CC(=O)Nc2cc(C(F)(F)F)cc(C(F)(F)F)c2)CC1` [Compound 334, N-(2-(4-(2-(3,5-bis(trifluoromethyl)phenylamino)-2-oxoethyl)piperidin-1-yl)ethyl)pivalamide]: the IC50 is 220 nM in data set [1], under 300 nM in data set [2] and 920 nM in data set [3].

For the compound `CN(C(=O)CN1CCC(CNC(=O)c2cccc(Cl)c2)CC1)C(C)(C)C(F)(F)F` [Compound 580, 3-chloro-N-((1-(2-(methyl(1,1,1-trifluoro-2-methylpropan-2-yl)amino)-2-oxoethyl)piperidin-4-yl)methyl)benzamide], the IC50 in data set [1] was 220 nM; in data set [2], under 300 nM; in data set [3] (human) it was at least 8300 nM.

On to `O=C(NCC1CCN(CC(=O)N2CCC[C@H]2C(F)(F)F)CC1)c1cccc(Br)c1` [Compound 468, (S)-3-bromo-N-((1-(2-oxo-2-(2-(trifluoromethyl)pyrrolidin-1-yl)ethyl)piperidin-4-yl)methyl)benzamide], for which the IC50 in data set [1] is 90 nM; in data set [2] it was under 300 nM; in data set [3], 4200 nM.

As for `CC(C)(C)NC(=O)CN1CCC(CNC(=O)c2cccc(OC(F)(F)F)c2)CC1` [Compound 375, N-((1-(2-(tert-butylamino)-2-oxoethyl)piperidin-4-yl)methyl)-3-(trifluoromethoxy)benzamide], the results for the IC50 in data set [1], in data set [2] and in data set [3] were 70 nM, under 300 nM and 8800 nM, respectively.

Take `COCC(C)(C)NC(=O)CN1CCC(CNC(=O)c2cc(F)cc(OC)c2)CC1` [Compound 567, 3-fluoro-5-methoxy-N-((1-(2-(1-methoxy-2-methylpropan-2-ylamino)-2-oxoethyl)piperidin-4-yl)methyl)benzamide]: the IC50 was 350 nM in data set [1], under 300 nM in data set [2] and at least 17000 nM in data set [3] (human).

Regarding `COCC(C)(C)NC(=O)CN1CCC(CNC(=O)c2cc(F)cc(Cl)c2)CC1` [Compound 538, 3-chloro-5-fluoro-N-((1-(2-(1-methoxy-2-methylpropan-2-ylamino)-2-oxoethyl)piperidin-4-yl)methyl)benzamide], the IC50 was 60 nM in data set [1], under 300 nM in data set [2] and 13000 nM in data set [3].

Consider `CN(C(=O)CN1CCC(CNC(=O)c2cccc(C(F)(F)F)c2)CC1)C(C)(C)C` [Compound 542, N-((1-(2-(tert-butyl(methyl)amino)-2-oxoethyl)piperidin-4-yl)methyl)-3-(trifluoromethyl)benzamide], for which the figures for the IC50 in data set [1], in data set [2] and in data set [3] were 450 nM, 980 nM and 6400 nM, respectively.

On to `O=C(NCC1CCN(CCNC(=O)C2(C(F)(F)F)CC2)CC1)c1cc(F)cc(Cl)c1` [Compound 472, 3-chloro-5-fluoro-N-((1-(2-(1-(trifluoromethyl)cyclopropanecarbox-amido)ethyl)piperidin-4-yl)methyl) benzamide], for which the figures for the IC50 in data set [1], in data set [2] and in data set [3] were 40 nM, under 300 nM and 2800 nM, respectively.

On to `COc1cc(F)cc(C(=O)NCC2CCN(CCNC(=O)C3(C(F)(F)F)CCC3)CC2)c1` [Compound 513, 3-fluoro-5-methoxy-N-((1-(2-(1-(trifluoromethyl)cyclobutanecarboxamido)ethyl)piperidin-4-yl)methyl)benzamide], for which the IC50 was 90 nM in data set [1], under 300 nM in data set [2] and at least 16600 nM in data set [3] (human).

For `Cc1cc(C)cc(C(=O)NCC2CCN(CC(=O)NC(C)(C)C)CC2)c1` [Compound 362, N-((1-(2-(tert-butylamino)-2-oxoethyl)piperidin-4-yl)methyl)-3,5-dimethylbenzamide], the values for the concentration for half-maximal inhibition (IC50) in data set [1], in data set [2] and in data set [3] (human) were 170 nM, under 300 nM and at least 8300 nM, respectively.

As for `CC(C)(C)NC(=O)CN1CCC(CNC(=O)c2cccc(C(F)(F)F)c2)CC1` [Compound 371, N-((1-(2-(tert-butylamino)-2-oxoethyl)piperidin-4-yl)methyl)-3-(trifluoromethyl)benzamide], the concentration for half-maximal inhibition (IC50) is 140 nM in data set [1], under 300 nM in data set [2] and 14700 nM in data set [3].

Take `CC1(C)COCCN1C(=O)CN1CCC(CNC(=O)c2cc(C(F)(F)F)cc(C(F)(F)F)c2)CC1` [Compound 578, N-((1-(2-(3,3-dimethylmorpholino)-2-oxoethyl)piperidin-4-yl)methyl)-3,5-bis(trifluoromethyl)benzamide]: the results for the IC50 in data set [1], in data set [2] and in data set [3] were 160 nM, under 300 nM and 5400 nM, respectively.

As for `COc1cc(F)cc(C(=O)NCC2CCN(CCNC(=O)C3(C(F)(F)F)CC3)CC2)c1` [Compound 499, 3-fluoro-5-methoxy-N-((1-(2-(1-(trifluoromethyl)cyclopropanecarbox-amido)ethyl)piperidin-4-yl)methyl) benzamide], the IC50 in data set [1] was 140 nM; in data set [2], under 300 nM; in data set [3], 11100 nM.

As for `O=C(NCC1CCN(CC(=O)N2CCC[C@H]2C(F)(F)F)CC1)c1cccc(OC(F)(F)F)c1` [Compound 471, (S)-N-((1-(2-oxo-2-(2-(trifluoromethyl)pyrrolidin-1-yl)ethyl)piperidin-4-yl)methyl)-3-(trifluoromethoxy)benzamide], the figures for the concentration for half-maximal inhibition (IC50) in data set [1], in data set [2] and in data set [3] were 60 nM, under 300 nM and 2300 nM, respectively.

As for `COc1cc(Cl)cc(C(=O)NCC2CCN(CCNC(=O)C3(C(F)(F)F)CC3)CC2)c1` [Compound 590, 3-chloro-5-methoxy-N-((1-(2-(1-(trifluoromethyl)cyclopropanecarbox-amido)ethyl)piperidin-4-yl)methyl) benzamide], the IC50 was 70 nM in data set [1], under 300 nM in data set [2] and 2200 nM in data set [3].

As to `CC1(NC(=O)CN2CCC(CNC(=O)c3cc(F)cc(Cl)c3)CC2)CCC1` [Compound 482, 3-chloro-5-fluoro-N-((1-(2-(1-methylcyclobutylamino)-2-oxoethyl)piperidin-4-yl)methyl) benzamide], the IC50 is 80 nM in data set [1], under 300 nM in data set [2] and 7900 nM in data set [3].

Take `CC(C)(C)NC(=O)CN1CCC(CNC(=O)c2cc(F)cc(C(F)(F)F)c2)CC1` [Compound 376, N-((1-(2-(tert-butylamino)-2-oxoethyl)piperidin-4-yl)methyl)-3-fluoro-5-(trifluoromethyl)benzamide]: the 50% inhibitory concentration (IC50) in data set [1] is 160 nM; in data set [2] it was under 300 nM; in data set [3], 11000 nM.

As for `COc1cc(F)cc(C(=O)NCC2CCN(CC(=O)NC3(C)CCC3)CC2)c1` [Compound 477, 3-fluoro-5-methoxy-N-((1-(2-(1-methylcyclobutylamino)-2-oxoethyl)piperidin-4-yl)methyl) benzamide], the IC50 was 60 nM in data set [1], under 300 nM in data set [2] and at least 16600 nM in data set [3] (human).

Take `CN(C(=O)CN1CCC(CNC(=O)c2cc(F)cc(Cl)c2)CC1)C1(C)CCC1` [Compound 583, 3-chloro-5-fluoro-N-((1-(2-(methyl(1-methylcyclobutyl)amino)-2-oxoethyl)piperidin-4-yl)methyl)benzamide]: the IC50 was 150 nM in data set [1], under 300 nM in data set [2] and 1700 nM in data set [3].

Take `CC(C)(C)[S+]([O-])NCCN1CCC(CNC(=O)c2cc(F)cc(C(F)(F)F)c2)CC1` (stereo not drawn) [Compound 537, N-((1-(2-(1,1-dimethylethylsulfinamido)ethyl)piperidin-4-yl)methyl)-3-fluoro-5-(trifluoromethyl)benzamide]: the IC50 in data set [1] is 360 nM; in data set [2], 2470 nM; in data set [3] (human), at least 17000 nM.
